Laboratory results from patent publication US20230414611A1, “REFINED USES OF GABA A RECEPTOR MODULATORS IN TREATMENT OF FRAGILE X SYNDROME” (CHILDREN'S HOSPITAL MEDICAL CENTER, priority 2020, published 2023).
“Also recorded” adds a separate entry of the source.

Tests used:
Format in all cases: in vivo, human
[1] = tested on: adults with Fragile X Syndrome (FXS); experiment: WJ auditory attention; conditions: FMRP-present male patients
[2] = tested on: adults with Fragile X Syndrome (FXS); experiment: RBANS list learning in AZD7325 clinical study; set-up: key to RBANS list learning, difference of least squares means, Estimate: Baseline - Low: difference in raw score (number of words remembered); key to RBANS-LL score: raw score = number of words remembered; higher is better; conditions: for RBANS-LL score: undetectable FMRP male subjects (n=5), mean ± SD
Excerpt: (§1) This study aims at investigating the safety, tolerability, and blood pharmacodynamics of treatment with oral administration of AZD7325 in adults with Fragile X Syndrome (FXS). This study also investigates measures of efficacy and biomarkers during treatment.
(§2) The treatment conditions are provided Table 2 below:
Table 5 below summarizes clinical measure RBANS List Learning scores from the 5 “undetectable” FMRP male subjects. RBANS List Learning is a verbal working memory task and raw scores provided indicate number of words remembered, with higher scores indicating more number of words remembered. Group average and standard deviation were obtained cross subjects per treatment type (Placebo/Low dose/High dose) and per visit, which are 1) baseline: before intake, 2) acute: after the first dosage, and 3) chronic: post 2-week daily dosage. Higher scores are clinically better.

[3] = tested on: adults with Fragile X Syndrome (FXS); experiment: RBANS list learning in AZD7325 clinical study; set-up: key to RBANS list learning, difference of least squares means, Estimate: Low - High / RBANS list learning, difference of least squares means, Estimate: Baseline - High: difference in raw score (number of words remembered); conditions: for RBANS_LL change: chronic
[4] = tested on: adults with Fragile X Syndrome (FXS); experiment: Clinical response and adverse effects by peripheral FMRP status
Method: as §1, §2
Peripheral levels FMRP proteins in the patients were measured by an immunoassay using an antibody specific to FMRP. A fair percentage of males with FXS show mosaicism or a mix of […] and mutation cells. FIG. 3. Peripheral blood FMRP levels from the study participants are shown in Table 4 below (measured using dried blood spot samples using Luminex® Assay; see Example 3 below). The levels of FMRP measured using dried blood spot as disclosed herein are estimated to be about 7 folds higher than the FMRP levels in the blood of the same patient.

[5] = subgroup of males (outlier removed), low dose 5 mg twice per day oral
[6] = subgroup of males (outlier removed), high dose 15 mg twice per day oral

## CCCNC(=O)c1nnc2c(-c3c(F)cccc3OC)cccc2c1N [AZD7325, 4-amino-8-(2-fluoro-6-methoxyphenyl)-N-propylcinnoline-3-carboxamide]
[1]
  WJ auditory attention: trending increase
[2]; all eligible subjects, low dose
  RBANS list learning scores, trend: might improve
[2]; high dose
  performance on RBANS: dose limiting effect
[2]; low dose, chronic, nondetectable FMRP subjects
  RBANS_LL change: all positive trended
[2]; low dose, males
  memory as measured by the RBANS assay: improved memory
[2]; subgroup
  RBANS LL score increase, low dose compared to high dose: e Low dose had greater score increase (benefit) than high dose, separating groups.
[2]; [5]
  RBANS list learning, difference of least squares means, Estimate: Baseline - Low: −2.75
[2]; subgroup, high dose
  change of RBANS LL from baseline: c No change from baseline with high dose (direction is toward worsening, −2)
[2]; subgroup, low dose
  increase (benefit) of RBANS LL compared to placebo: d Low dose demonstrated increase of nearly 4 (benefit) compared to placebo
  increase (benefit) of RBANS LL from baseline: b Low dose in this subgroup demonstrated an increase (benefit) of +2.75 of RBANS LL from baseline
[2]; high dose, acute (after the first dosage)
  RBANS-LL score: 10.4 ± 7.40
[2]; high dose, baseline (before intake)
  RBANS-LL score: 14.8 ± 8.32
[2]; high dose, chronic (post 2-week daily dosage)
  RBANS-LL score: 12.2 ± 6.83
[2]; low dose, acute (after the first dosage)
  RBANS-LL score: 13.2 ± 3.11
[2]; low dose, baseline (before intake)
  RBANS-LL score: 10.6 ± 5.22
[2]; low dose, chronic (post 2-week daily dosage)
  RBANS-LL score: 14.6 ± 6.80
[3]; all eligible subjects (p=0.09)
  effect of drug on RBANS list learning: trending effect
[3]; low dose, female detectable FMRP subjects
  RBANS_LL change: improves RBANS growth in 2 of the three female detectable subjects
[3]; low dose, male detectable FMRP subjects
  RBANS_LL change: bi-directional distributed and overlap with placebo
[3]; low dose, subgroup of males following removal of an outlier
  effect on RBANS list learning: significant beneficial effect
[3]; [6]
  RBANS list learning, difference of least squares means, Estimate: Baseline - High: 2.09
  RBANS list learning, difference of least squares means, Estimate: Placebo - High: 0.84
[3]; [5]
  RBANS list learning, difference of least squares means, Estimate: Placebo - Low: −4.00
[3]; subgroup of males (outlier removed), low dose vs high dose
  RBANS list learning, difference of least squares means, Estimate: Low - High: 4.84
[4]; human, in vivo
  low dose (5 mg BID) versus high dose (15 mg BID) in terms of adverse effects and signal (treatment efficacy): superior over high dose
[4]; low dose (5 mg twice per day), patients having undetectable peripheral FMRP
  responsiveness to treatment: responsive; also recorded: showed responsiveness
[4]; low dose, male patients having undetectable peripheral FMRP
  clinical improvement: Clinical improvement
[4]; low dose, patients having detectable peripheral FMRP
  responsiveness to treatment: not responsive
